Assay results as given in publication PMC9030254, “Target Hopping from Protein Kinases to PXR: Identification of Small-Molecule Protein Kinase Inhibitors as Selective Modulators of Pregnane X Receptor from TüKIC Library” (Cells, 2022).

Experiments:
Assay in all cases: Kinase profiling
Type in all cases: biochemical
PRKD2 = target: T1, PRKD2 (Homo sapiens, UniProt Q9BZL6)
T1 construct: purchased ProQinase (Freiburg, Germany)
T1 sequence (Q9BZL6 1-878): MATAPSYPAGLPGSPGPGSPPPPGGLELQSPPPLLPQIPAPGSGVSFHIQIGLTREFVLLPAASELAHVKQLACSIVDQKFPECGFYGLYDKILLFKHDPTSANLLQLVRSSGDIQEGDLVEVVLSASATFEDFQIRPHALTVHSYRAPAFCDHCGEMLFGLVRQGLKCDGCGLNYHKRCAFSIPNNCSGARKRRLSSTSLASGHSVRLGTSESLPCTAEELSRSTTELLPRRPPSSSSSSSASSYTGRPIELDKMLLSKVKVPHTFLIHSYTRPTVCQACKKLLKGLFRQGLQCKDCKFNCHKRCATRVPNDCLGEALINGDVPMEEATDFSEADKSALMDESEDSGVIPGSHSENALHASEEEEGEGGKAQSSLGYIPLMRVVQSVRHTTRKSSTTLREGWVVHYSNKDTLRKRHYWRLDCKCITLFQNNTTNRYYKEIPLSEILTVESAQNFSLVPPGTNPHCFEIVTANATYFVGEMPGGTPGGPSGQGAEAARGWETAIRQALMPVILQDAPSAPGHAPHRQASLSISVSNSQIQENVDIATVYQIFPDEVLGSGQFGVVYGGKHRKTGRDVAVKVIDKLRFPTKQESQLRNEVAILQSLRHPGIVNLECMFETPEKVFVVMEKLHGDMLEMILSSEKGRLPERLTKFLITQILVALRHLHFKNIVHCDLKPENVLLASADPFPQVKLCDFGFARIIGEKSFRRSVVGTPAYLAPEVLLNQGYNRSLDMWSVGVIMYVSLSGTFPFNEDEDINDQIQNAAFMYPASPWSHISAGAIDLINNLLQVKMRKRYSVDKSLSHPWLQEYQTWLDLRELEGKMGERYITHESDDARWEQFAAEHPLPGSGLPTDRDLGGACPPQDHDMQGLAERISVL
Description: (§1) The analysis was performed by ProQinase (Freiburg, Germany).

MEKK2 = target: T2, MEKK2 (Homo sapiens, UniProt Q9Y2U5)
T2 construct: purchased ProQinase (Freiburg, Germany)
T2 sequence (Q9Y2U5 1-619): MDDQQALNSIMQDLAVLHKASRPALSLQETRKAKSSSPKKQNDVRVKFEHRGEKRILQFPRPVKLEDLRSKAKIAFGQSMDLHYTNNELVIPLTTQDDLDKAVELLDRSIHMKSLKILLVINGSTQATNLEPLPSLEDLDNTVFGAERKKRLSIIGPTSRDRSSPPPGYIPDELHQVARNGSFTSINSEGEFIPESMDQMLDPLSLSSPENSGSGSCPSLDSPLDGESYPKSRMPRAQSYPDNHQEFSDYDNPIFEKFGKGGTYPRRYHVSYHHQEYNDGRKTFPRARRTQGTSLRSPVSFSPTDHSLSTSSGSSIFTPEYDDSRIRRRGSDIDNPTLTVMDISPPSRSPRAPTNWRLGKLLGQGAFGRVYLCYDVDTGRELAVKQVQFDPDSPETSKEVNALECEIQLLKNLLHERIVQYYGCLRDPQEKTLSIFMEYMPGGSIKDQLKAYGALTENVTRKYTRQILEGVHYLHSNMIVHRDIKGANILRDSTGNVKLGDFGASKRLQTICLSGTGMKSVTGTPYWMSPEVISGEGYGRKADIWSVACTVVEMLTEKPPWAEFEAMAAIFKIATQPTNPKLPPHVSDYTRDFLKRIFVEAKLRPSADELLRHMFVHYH
Description: as §1

EEF2K = target: T3, EEF2K (Homo sapiens, UniProt O00418)
T3 construct: purchased ProQinase (Freiburg, Germany)
T3 sequence (O00418 1-725): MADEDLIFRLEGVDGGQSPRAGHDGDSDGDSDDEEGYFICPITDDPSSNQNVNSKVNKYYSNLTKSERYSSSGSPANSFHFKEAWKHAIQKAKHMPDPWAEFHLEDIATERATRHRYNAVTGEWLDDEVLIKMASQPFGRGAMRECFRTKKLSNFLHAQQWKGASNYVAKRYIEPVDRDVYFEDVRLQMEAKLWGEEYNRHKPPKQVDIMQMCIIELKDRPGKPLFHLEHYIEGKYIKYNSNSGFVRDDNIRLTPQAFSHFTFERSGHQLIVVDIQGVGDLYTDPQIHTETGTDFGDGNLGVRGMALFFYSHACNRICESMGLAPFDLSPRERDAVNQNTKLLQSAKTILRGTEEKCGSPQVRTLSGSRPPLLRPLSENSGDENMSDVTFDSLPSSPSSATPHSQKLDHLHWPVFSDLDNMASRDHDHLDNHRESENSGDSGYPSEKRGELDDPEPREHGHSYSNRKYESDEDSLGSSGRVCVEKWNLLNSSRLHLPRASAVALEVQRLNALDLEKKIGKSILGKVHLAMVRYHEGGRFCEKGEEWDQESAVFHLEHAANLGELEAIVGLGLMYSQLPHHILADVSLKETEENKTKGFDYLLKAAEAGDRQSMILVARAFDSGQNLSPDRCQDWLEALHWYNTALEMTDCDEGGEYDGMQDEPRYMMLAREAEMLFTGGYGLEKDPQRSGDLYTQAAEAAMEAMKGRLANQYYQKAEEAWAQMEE
Description: as §1

ZAP70 = target: T4, ZAP70 (Homo sapiens, UniProt P43403)
T4 construct: purchased ProQinase (Freiburg, Germany)
T4 sequence (P43403 1-619): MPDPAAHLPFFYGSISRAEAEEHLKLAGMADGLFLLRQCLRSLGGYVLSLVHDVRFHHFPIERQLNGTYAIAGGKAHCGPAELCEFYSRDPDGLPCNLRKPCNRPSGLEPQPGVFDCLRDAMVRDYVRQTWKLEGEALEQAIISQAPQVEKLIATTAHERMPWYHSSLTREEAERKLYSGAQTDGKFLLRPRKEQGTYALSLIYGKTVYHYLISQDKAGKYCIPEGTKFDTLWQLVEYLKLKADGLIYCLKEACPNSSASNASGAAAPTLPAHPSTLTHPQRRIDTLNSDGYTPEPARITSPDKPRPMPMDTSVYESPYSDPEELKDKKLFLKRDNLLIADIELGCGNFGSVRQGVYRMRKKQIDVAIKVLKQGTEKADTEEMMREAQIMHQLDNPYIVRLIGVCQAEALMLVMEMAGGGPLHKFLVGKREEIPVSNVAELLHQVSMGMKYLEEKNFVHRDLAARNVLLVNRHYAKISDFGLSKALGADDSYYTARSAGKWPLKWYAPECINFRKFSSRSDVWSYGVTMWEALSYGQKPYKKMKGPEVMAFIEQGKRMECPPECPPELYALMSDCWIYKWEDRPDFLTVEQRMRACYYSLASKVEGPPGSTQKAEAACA
Description: as §1

CDK18/CycY = target: T5, CDK18/CycY (Homo sapiens, UniProt Q07002)
T5 construct: purchased ProQinase (Freiburg, Germany)
Description: as §1

T5 sequence (Q07002 whole entry): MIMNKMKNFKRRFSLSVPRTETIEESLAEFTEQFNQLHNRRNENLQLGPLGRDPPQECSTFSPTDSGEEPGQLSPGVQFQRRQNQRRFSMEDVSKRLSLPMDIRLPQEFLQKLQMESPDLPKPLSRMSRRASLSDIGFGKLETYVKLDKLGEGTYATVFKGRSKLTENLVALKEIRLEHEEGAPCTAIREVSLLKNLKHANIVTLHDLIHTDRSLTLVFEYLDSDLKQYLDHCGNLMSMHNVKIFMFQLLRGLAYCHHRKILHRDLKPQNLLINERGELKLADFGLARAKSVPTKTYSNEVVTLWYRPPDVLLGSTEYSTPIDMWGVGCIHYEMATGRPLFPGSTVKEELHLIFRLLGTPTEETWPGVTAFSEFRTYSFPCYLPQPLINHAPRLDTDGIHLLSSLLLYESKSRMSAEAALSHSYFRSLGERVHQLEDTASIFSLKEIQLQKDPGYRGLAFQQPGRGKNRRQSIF
T5 sequence (Q8ND76 whole entry partner): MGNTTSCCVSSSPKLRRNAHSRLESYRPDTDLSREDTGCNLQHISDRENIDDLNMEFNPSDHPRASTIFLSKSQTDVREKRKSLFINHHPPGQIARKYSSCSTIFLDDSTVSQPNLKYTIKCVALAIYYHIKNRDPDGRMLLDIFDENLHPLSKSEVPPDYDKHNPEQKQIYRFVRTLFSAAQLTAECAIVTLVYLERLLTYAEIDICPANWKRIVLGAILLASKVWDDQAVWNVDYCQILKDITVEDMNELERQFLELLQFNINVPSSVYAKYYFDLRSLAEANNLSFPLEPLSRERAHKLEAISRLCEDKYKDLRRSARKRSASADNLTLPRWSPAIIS

Compound | Residual activity (PRKD2; 1.0E-05 M) | Residual activity (PRKD2; 1.0E-06 M) | Residual activity (MEKK2; 1.0E-05 M) | Residual activity (MEKK2; 1.0E-06 M) | Residual activity (EEF2K; 1.0E-05 M) | Residual activity (EEF2K; 1.0E-06 M) | Residual activity (ZAP70; 1.0E-05 M) | Residual activity (ZAP70; 1.0E-06 M) | Residual activity (CDK18/CycY; 1.0E-05 M) | Residual activity (CDK18/CycY; 1.0E-06 M)
O=C(Cc1ccccc1)Nc1ccc(F)c(Nc2ccc3c(c2)CCCCC3=O)c1 [Compound 100] | 92 % of control | 87 % of control | 108 % of control | 108 % of control | 89 % of control | 102 % of control | 103 % of control | 118 % of control | 88 % of control | 93 % of control
O=C(Nc1ccc(F)c(Nc2ccc3c(c2)CCCCC3=O)c1)c1cccc(F)c1 [Compound 109] | 81 % of control | 82 % of control | 101 % of control | 99 % of control | 94 % of control | 95 % of control | 91 % of control | 114 % of control | 98 % of control | 91 % of control
